The results in this text go back to patent publication US20090137652A1, “METHODS FOR NEUROPROTECTION” (priority 2005, published 2009).

Experiment [1] deals with transient cerebral ischemia middle cerebral artery occlusion (MCAO) rat model. In words: Transient cerebral ischemia middle cerebral artery occlusion (MCAO) rat model, infarct volume. In kind it is in vivo. The note with it: MK 801 3 mg/kg i.p., N 12. On the procedure: The enantiomer of Formula 7 (test compound) was investigated in the transient cerebral ischemia middle cerebral artery occlusion (MCAO) rat model (as described in Nagasawa H. and Kogure K., Stroke, 1989, 20, 1037; and, Zea Longa E., Weinstein P. R., Carlson S, and Cummins R., Stroke, 1989, 20, 84) using male Wistar rats at 10 and 100 mg/kg (i.v.). MK 801 (Dizocilpine maleate; CAS Registry number 77086-22-7, a commercially available neuroprotectant compound) was used as a positive control (3 mg/kg, i.p.).
Rats (n=12) were randomly allocated to one of four experimental groups and were anesthetized. Blood flow from the internal carotid artery, anterior cerebral artery and posterior cerebral artery into the middle cerebral artery was blocked by this procedure. One hour after blockage, animals were treated over a 1 hour period with vehicle (administered i.v. over the one hour period), control (administered as a single i.p. dose at the start of the one hour period) and two doses of the enantiomer of Formula 7 (administered i.v. over the one hour period). Two hours after blockage, reperfusion was performed.
The animals were sacrificed and […] coronal sections of each brain were prepared. One in every forty sections (i.e. every […]) from the front to the occipital cortex was used to quantify the extent of the cerebral lesion. Slides were prepared using sections stained (according to the Nissl procedure) with cresyl violet and were examined under a light microscope.
Regional ischemic surface areas in the coronal sections of individual rats were determined according to the presence of cells with morphological changes. The areas of neuronal injury or infarction were measured and then added. The cortex and striatum volume were calculated for each animal (total ischemic surface area×0.8 mm (thickness)).
The mean volumes (.+−.S.E.M.) for each animal randomly assigned to the four experimental groups were compared using one-way ANOVA (one way ANOVA is a statistical method which compares 3 or more unmatched groups) followed by Dunnett's t-test (both methods incorporated in Statview 512+software, BarinPower, Calabasas, Calif., USA).

Another experiment deals with PC12 cells. In words: PC12 cell serum withdrawal model, MTS cell survival assay. In kind it is cell-based. The text has this:
Serum withdrawal is a cytotoxic environmental challenge that results in cell death in cultured cell lines as well as in primary cells of various tissue origins, including nerve cells. In particular, pheochromocytoma (PC) 12 cells have been widely employed as an in vitro neuronal cell model for a wide variety of neurodegenerative and cell death related disorders (Muriel, et al, Mitochondrial free calcium levels (Rhod-2 fluorescence) and ultrastructural alterations in neuronally differentiated PC12 cells during ceramide-dependent cell death, J. Comp. Neurol., 2000, 426(2), 297-315; Dermitzaki, et al, Opioids transiently prevent activation of apoptotic mechanisms following short periods of serum withdrawal, J. Neurochem., 2000, 74(3), 960-969; Carlile, et al, Reduced apoptosis after nerve growth factor and serum withdrawal: conversion of tetrameric glyceraldehyde-3-phosphate dehydrogenase to a dimer, Mol. Pharmacol., 2000, 57(1), 2-12). PC12 cells were cultured in sterile media (RPMI 1640) supplemented with 10% heat-inactivated horse serum and 5% fetal bovine serum (FBS). The culture medium also contained Penicillin-Streptomycin-Neomycin antibiotic (50 µg, 50 µg, 100 µg, respectively). Medium was exchanged every other day and the cells were passed in log phase near confluence.
The control cells were cultured in regular media without any treatment. An enantiomer of Formula 7 or Formula 8 (10 µM) was mixed well in the medium and then applied to the cells. For the 2 day assay, an enantiomer of Formula 7 or Formula 8 (10 µM) was only applied to the cells once at the time of serum withdrawal. For the 7 day assay, an enantiomer of Formula 7 or Formula 8 (10. mu.M) was applied to the cells at the time of serum withdrawal and every 48 hr thereafter when cells were changed with fresh new serum-free medium. In the serum withdrawal group, the cells were cultured in serum-free medium with no additional enantiomer of Formula 7 or Formula 8. Cell survival was determined by the 3-(4,5-dimethylthiazol-2-yl)-5-(3-[…])-2-(4-sulfophenyl)-2H-tetrazolium inner salt (MTS) assay at 2 or 7 days after serum withdrawal.
At the end of the experiment, cells were washed with fresh medium and incubated with MTS solution in a humidified 37° C. with 5% CO2 incubator for 1.5 hr. After the incubation period, the cells were immediately analyzed using a Softmax program (Molecular Devices). […] The assay is based on the cellular conversion of the tetrazolium salt, MTS, into a formazan that is soluble in tissue culture medium and measured directly at 490 nm in 96-well assay plates. The absorbance is directly proportional to the number of living cells in culture. The arbitrary absorbance reading in control cells is expressed as 100% survival rate.

The structures appear in SMILES notation. Structures can show the parent of a compound that is named as a salt.

Turning to `C[C@]12N[C@H](Cc3ccccc31)c1ccccc12` [MK 801, Dizocilpine maleate, reference compound], the “Mean Infarct Volume ± S.E.M., Striatum” value in experiment [1] (vehicle 79.4) is recorded as 56.1 ± 5.3^2 mm^3. Further, in experiment [1] (vehicle 275.5), the “Mean Infarct Volume ± S.E.M., Cortex” value is given as 95.8 ± 24.5^1 mm^3. Moreover, the “Mean Infarct Volume ± S.E.M., Total Volume” value in experiment [1] (vehicle 354.9) was 151.9 ± 28.7^1 mm^3.
On to `NC(=O)OC[C@H](OC(N)=O)c1ccccc1Cl` [Formula 8], for which the “2 Day Survival Rate” value with PC12 cells (10 µM applied once at serum withdrawal, MTS assay 2 days after serum withdrawal, control 100, serum-free 49.6) is listed as 66.4 ± 5.4^1%. Also, the “7 Day Survival Rate” value in the experiment on PC12 cells (10 µM at serum withdrawal and every 48 hr, MTS assay 7 days after serum withdrawal, control 100, serum-free 23.8) is reported as 85.2 ± 0.6^2%.
